According to PubChem BioAssay AID1963982 (Molecular Pharmacology Branch, DTP, NCI, 2024):
Where “and” joins values, the source holds several entries; their conditions need not be identical. Equal entries are not always repeated.

System: 313798-341-R-J2-PDC spheroids, viability
Assay: Anticancer human tumor 313798-341-R-J2-PDC patient-derived cervical squamous cell carcinoma cell line growth inhibition [PI3K]
Settings: spheroids with HUVEC and MSC; for viability, T/C: stronger effect = lower value
Method in brief: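 Combination activity was assessed by viability in multicellular tumor spheroids carrying HUVEC and MSC components. Agents were tested with PI3K inhibitors from a Cmax-based top dose (or 10 microM) downward in half-log increments.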

[1] = curve of first compound, second compound 0.0316 µM
[2] = curve of first compound, second compound 0.1 µM
[3] = curve of first compound, second compound 0.316 µM
[4] = curve of first compound, second compound 1 µM
[5] = curve of first compound, second compound 3.16 µM
[6] = curve of first compound, second compound 10 µM
[7] = second compound 0.0316 µM, first compound 0.0316 µM
[8] = second compound 0.0316 µM, first compound 0.1 µM
[9] = second compound 0.0316 µM, first compound 0.316 µM
[10] = second compound 0.0316 µM, first compound 1 µM
[11] = second compound 0.0316 µM, first compound 3.16 µM
[12] = second compound 0.0316 µM, first compound 10 µM
[13] = second compound 0.1 µM, first compound 0.0316 µM
[14] = second compound 0.1 µM, first compound 0.1 µM
[15] = second compound 0.1 µM, first compound 0.316 µM
[16] = second compound 0.1 µM, first compound 1 µM
[17] = second compound 0.1 µM, first compound 3.16 µM
[18] = second compound 0.1 µM, first compound 10 µM
[19] = second compound 0.316 µM, first compound 0.0316 µM
[20] = second compound 0.316 µM, first compound 0.1 µM
[21] = second compound 0.316 µM, first compound 0.316 µM
[22] = second compound 0.316 µM, first compound 1 µM
[23] = second compound 0.316 µM, first compound 3.16 µM
[24] = second compound 0.316 µM, first compound 10 µM
[25] = second compound 1 µM, first compound 0.0316 µM
[26] = second compound 1 µM, first compound 0.1 µM
[27] = second compound 1 µM, first compound 0.316 µM
[28] = second compound 1 µM, first compound 1 µM
[29] = second compound 1 µM, first compound 3.16 µM
[30] = second compound 1 µM, first compound 10 µM
[31] = second compound 3.16 µM, first compound 0.0316 µM
[32] = second compound 3.16 µM, first compound 0.1 µM
[33] = second compound 3.16 µM, first compound 0.316 µM
[34] = second compound 3.16 µM, first compound 1 µM
[35] = second compound 3.16 µM, first compound 3.16 µM
[36] = second compound 3.16 µM, first compound 10 µM
[37] = second compound 10 µM, first compound 0.0316 µM
[38] = second compound 10 µM, first compound 0.1 µM
[39] = second compound 10 µM, first compound 0.316 µM
[40] = second compound 10 µM, first compound 1 µM
[41] = second compound 10 µM, first compound 3.16 µM
[42] = second compound 10 µM, first compound 10 µM
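Note: spheroids exposed to compounds for seven days.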
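Throughout, for viability, T/C: 100% = DMSO vehicle control viability.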

For `Cn1ncc(Cl)c1-c1cc(C(=O)NC(CN)Cc2cccc(F)c2)sc1Cl` (configuration not stated) + Cc1nc(NC(=O)N2CCCC2C(N)=O)sc1-c1ccnc(C(C)(C)C(F)(F)F)c1, the IC50 [1] was 927 nM, the IC50 [2] was 831 nM and the IC50 [3] was 868 nM. For the same compound, the IC50 [4] was 572 nM, the IC50 [5] was 238 nM and the IC50 [6] was under 31.6 nM. It also gave a viability, T/C [7] of 109%, a viability, T/C [8] of 93.2% and a viability, T/C [9] of 70.3%. For the same compound, the viability, T/C [10] was 49.7%, the viability, T/C [11] was 34.5% and the viability, T/C [12] was 33.3%. It also gave a viability, T/C [13] of 108%, a viability, T/C [14] of 89% and a viability, T/C [15] of 72.1%. It also gave a viability, T/C [16] of 44.5%, a viability, T/C [17] of 33.6% and a viability, T/C [18] of 34.8%. It also gave a viability, T/C [19] of 102%, a viability, T/C [20] of 99.7% and a viability, T/C [21] of 72.2%. It also gave a viability, T/C [22] of 48.5%, a viability, T/C [23] of 34.5% and a viability, T/C [24] of 33.1%. The viability, T/C [25] was 76.5%, the viability, T/C [26] was 73.9% and the viability, T/C [27] was 56.5%. For the same compound, the viability, T/C [28] was 43.9%, the viability, T/C [29] was 34.3% and the viability, T/C [30] was 33.7%. It also gave a viability, T/C [31] of 59.5%, a viability, T/C [32] of 57.5% and a viability, T/C [33] of 46%. The viability, T/C [34] was 40.7%, the viability, T/C [35] was 30.4% and the viability, T/C [36] was 28.4%. For the same compound, the viability, T/C [37] was 38.2%, the viability, T/C [38] was 32.6% and the viability, T/C [39] was 31.9%. For the same compound, the viability, T/C [40] was 26.4%, the viability, T/C [41] was 27.7% and the viability, T/C [42] was 17.4%.
Compound `CC(C)NCC(C(=O)N1CCN(c2ncnc3c2C(C)CC3O)CC1)c1ccc(Cl)cc1` (configuration not stated) + Cc1nc(NC(=O)N2CCCC2C(N)=O)sc1-c1ccnc(C(C)(C)C(F)(F)F)c1 has an IC50 [1] of 2080 nM, an IC50 [2] of 2770 nM and an IC50 [3] of 1620 nM. The IC50 [4] was 1420 nM, the IC50 [5] was 345 nM and the IC50 [6] was under 31.6 nM. For the same compound, the viability, T/C [7] was 118%, the viability, T/C [8] was 100% and the viability, T/C [9] was 88.7%. It also gave a viability, T/C [10] of 65.7%, a viability, T/C [11] of 37.8% and a viability, T/C [12] of 32.4%. It also gave a viability, T/C [13] of 107%, a viability, T/C [14] of 102% and a viability, T/C [15] of 87.8%. The viability, T/C [16] was 72.4%, the viability, T/C [17] was 45.3% and the viability, T/C [18] was 33.6%. It also gave a viability, T/C [19] of 101%, a viability, T/C [20] of 93% and a viability, T/C [21] of 94%. For the same compound, the viability, T/C [22] was 58.5%, the viability, T/C [23] was 39.9% and the viability, T/C [24] was 32.7%. For the same compound, the viability, T/C [25] was 84.9%, the viability, T/C [26] was 97.4% and the viability, T/C [27] was 86.2%. For the same compound, the viability, T/C [28] was 55.3%, the viability, T/C [29] was 39.2% and the viability, T/C [30] was 30.3%. It also gave a viability, T/C [31] of 65.9%, a viability, T/C [32] of 58.6% and a viability, T/C [33] of 49.4%. The viability, T/C [34] was 45.8%, the viability, T/C [35] was 32.7% and the viability, T/C [36] was 30.2%. It also gave a viability, T/C [37] of 34%, a viability, T/C [38] of 33.5% and a viability, T/C [39] of 34.6%. For the same compound, the viability, T/C [40] was 34.3%, the viability, T/C [41] was 27.8% and the viability, T/C [42] was 22.3%.
With `C[C@@H](NC(=O)c1ncnc(N)c1Cl)c1ncc(C(=O)Nc2cc(C(F)(F)F)c(Cl)cn2)s1` the viability, T/C (compound 0.0316 µM) was 94.6% [middle of 4 runs], the viability, T/C (compound 0.1 µM) was 102% [middle of 4 runs] and the viability, T/C (compound 0.316 µM) was 99.1% [middle of 4 runs]. For the same compound, the viability, T/C (compound 1 µM) was 97.8% [middle of 4 runs], the viability, T/C (compound 3.16 µM) was 120% [middle of 4 runs] and the IC50 (curve of compound) was > 10000 nM and 5950 nM.
In the case of `CC(C)n1nc(-c2ccc3oc(N)nc3c2)c2c(N)ncnc21` + CC(Nc1ncnc2nc[nH]c12)c1cc2cccc(Cl)c2c(=O)n1-c1ccccc1, the IC50 [1] is reported as 58.8 nM, the IC50 [2] is reported as 64.7 nM and the IC50 [3] is reported as 65.1 nM. For the same compound, the IC50 [4] was 50 nM, the IC50 [5] was 55.5 nM and the IC50 [6] was 25.4 nM. The viability, T/C (second compound 0.0316 µM, first compound 0.000316 µM) was 102%, the viability, T/C (second compound 0.0316 µM, first compound 0.001 µM) was 96.8% and the viability, T/C (second compound 0.0316 µM, first compound 0.00316 µM) was 108%. For the same compound, the viability, T/C (second compound 0.0316 µM, first compound 0.01 µM) was 96.5%, the viability, T/C [7] was 65.7% and the viability, T/C [8] was 36.6%. For the same compound, the viability, T/C (second compound 0.1 µM, first compound 0.000316 µM) was 109%, the viability, T/C (second compound 0.1 µM, first compound 0.001 µM) was 92.9% and the viability, T/C (second compound 0.1 µM, first compound 0.00316 µM) was 97%. It also gave a viability, T/C (second compound 0.1 µM, first compound 0.01 µM) of 101%, a viability, T/C [13] of 67.9% and a viability, T/C [14] of 39.1%. It also gave a viability, T/C (second compound 0.316 µM, first compound 0.000316 µM) of 101%, a viability, T/C (second compound 0.316 µM, first compound 0.001 µM) of 94.2% and a viability, T/C (second compound 0.316 µM, first compound 0.00316 µM) of 100%. It also gave a viability, T/C (second compound 0.316 µM, first compound 0.01 µM) of 97.4%, a viability, T/C [19] of 66.4% and a viability, T/C [20] of 40.2%. It also gave a viability, T/C (second compound 1 µM, first compound 0.000316 µM) of 100%, a viability, T/C (second compound 1 µM, first compound 0.001 µM) of 91.5% and a viability, T/C (second compound 1 µM, first compound 0.00316 µM) of 99.8%. For the same compound, the viability, T/C (second compound 1 µM, first compound 0.01 µM) was 89.7%, the viability, T/C [25] was 58.8% and the viability, T/C [26] was 36.8%. It also gave a viability, T/C (second compound 3.16 µM, first compound 0.000316 µM) of 117%, a viability, T/C (second compound 3.16 µM, first compound 0.001 µM) of 94.2% and a viability, T/C (second compound 3.16 µM, first compound 0.00316 µM) of 93.7%. For the same compound, the viability, T/C (second compound 3.16 µM, first compound 0.01 µM) was 82.2%, the viability, T/C [31] was 55.5% and the viability, T/C [32] was 40.6%. For the same compound, the viability, T/C (second compound 10 µM, first compound 0.000316 µM) was 87.6%, the viability, T/C (second compound 10 µM, first compound 0.001 µM) was 91.9% and the viability, T/C (second compound 10 µM, first compound 0.00316 µM) was 78.5%. It also gave a viability, T/C (second compound 10 µM, first compound 0.01 µM) of 57.1%, a viability, T/C [37] of 51.9% and a viability, T/C [38] of 27.1%.
